Reference: PubChem BioAssay (NCI)
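Tested at 5 concentrations; 48 h exposure; 96-well plates; endpoints linearly interpolated, else capped at highest concentration. The concentration for 50% growth inhibition is given as GI50. TGI: total growth inhibition.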

What was measured:
Assay in all cases: growth of human tumour cells (NCI), 48 h
[1] = test system: 786-0 renal
[2] = test system: A498 renal
[3] = test system: A549 NSCLC
[4] = test system: ACHN renal
[5] = test system: BT-549 breast
[6] = test system: CAKI-1 renal
[7] = test system: CCRF-CEM leukemia
[8] = test system: COLO 205 colon
[9] = test system: DU-145 prostate
[10] = test system: EKVX NSCLC
[11] = test system: HCC-2998 colon
[12] = test system: HCT-116 colon
[13] = test system: HCT-15 colon
[14] = test system: HL-60(TB) leukemia
[15] = test system: HOP-62 NSCLC
[16] = test system: HOP-92 NSCLC
[17] = test system: HS 578T breast
[18] = test system: HT29 colon
[19] = test system: IGROV1 ovarian
[20] = test system: KM12 colon
[21] = test system: LOX IMVI melanoma
[22] = test system: M14 melanoma
[23] = test system: MALME-3M melanoma
[24] = test system: MCF7 breast
[25] = test system: MDA-MB-231 breast
[26] = test system: MDA-MB-435
[27] = test system: MOLT-4 leukemia
[28] = test system: NCI-H226 lung
[29] = test system: NCI-H460 lung
[30] = test system: NCI-H522 lung
[31] = test system: NCI/ADR-RES ovarian
[32] = test system: OVCAR-3 ovarian
[33] = test system: OVCAR-4 ovarian
[34] = test system: OVCAR-5 ovarian
[35] = test system: OVCAR-8 ovarian
[36] = test system: PC-3 prostate
[37] = test system: RPMI-8226 leukemia
[38] = test system: RXF 393 renal
[39] = test system: SF-268 CNS
[40] = test system: SF-295 CNS
[41] = test system: SF-539 CNS
[42] = test system: SK-MEL-2 melanoma
[43] = test system: SK-MEL-28 melanoma
[44] = test system: SK-MEL-5 melanoma
[45] = test system: SK-OV-3 ovarian
[46] = test system: SN12C renal
[47] = test system: SNB-19 CNS
[48] = test system: SNB-75 CNS
[49] = test system: SR leukemia
[50] = test system: SW-620 colon
[51] = test system: T-47D breast
[52] = test system: TK-10 renal
[53] = test system: U251 CNS
[54] = test system: UACC-257 melanoma
[55] = test system: UACC-62 melanoma
[56] = test system: UO-31 renal

## COc1cc2c3c(n(CCCNCC4CC4)c(=O)c2cc1OC)-c1cc2c(cc1C3=O)OCO2
[1]
  GI50: 1440 nM
  TGI: 2810 nM
[2]
  GI50: 12600 nM
  TGI: 25400 nM
[3]
  GI50: 1220 nM
  TGI: 2570 nM
[4]
  GI50: 439 nM
  TGI: 1570 nM
[5]
  GI50: 12700 nM
  TGI: 26700 nM
[6]
  GI50: 990 nM
  TGI: 2150 nM
[7]
  GI50: 82 nM
  TGI: 2700 nM
[8]
  GI50: 1110 nM
  TGI: 4210 nM
[9]
  GI50: 759 nM
  TGI: 2110 nM
[10]
  GI50: 1780 nM
  TGI: 3480 nM
[11]
  GI50: 1240 nM
  TGI: 2550 nM
[12]
  GI50: 1140 nM
  TGI: 2540 nM
[13]
  GI50: 1250 nM
  TGI: 2800 nM
[14]
  GI50: 1470 nM
  TGI: 3250 nM
[15]
  GI50: 354 nM
  TGI: 1600 nM
[16]
  GI50: 9320 nM
  TGI: 21900 nM
[17]
  GI50: 18800 nM
  TGI: 59600 nM
[18]
  GI50: 1060 nM
  TGI: 2320 nM
[19]
  GI50: 1160 nM
  TGI: 2750 nM
[20]
  GI50: 1370 nM
  TGI: 3120 nM
[21]
  GI50: 349 nM
  TGI: 1890 nM
[22]
  GI50: 1090 nM
  TGI: 2380 nM
[23]
  GI50: 1490 nM
  TGI: 2970 nM
[24]
  GI50: 95.3 nM
  TGI: 1690 nM
[25]
  GI50: 1440 nM
  TGI: 3110 nM
[26]
  GI50: 1290 nM
  TGI: 2570 nM
[27]
  GI50: 38.5 nM
  TGI: 1540 nM
[28]
  GI50: 10700 nM
  TGI: 28700 nM
[29]
  GI50: 243 nM
  TGI: 1460 nM
[30]
  GI50: 492 nM
  TGI: 2100 nM
[31]
  GI50: 1070 nM
  TGI: 2890 nM
[32]
  GI50: 1420 nM
  TGI: 2840 nM
[33]
  GI50: 1730 nM
  TGI: 3350 nM
[34]
  GI50: 1740 nM
  TGI: 3290 nM
[35]
  GI50: 1110 nM
  TGI: 2660 nM
[36]
  GI50: 1210 nM
  TGI: 2840 nM
[37]
  GI50: 636 nM
  TGI: 3310 nM
[38]
  GI50: 1490 nM
  TGI: 2830 nM
[39]
  GI50: 764 nM
  TGI: 2490 nM
[40]
  GI50: 307 nM
  TGI: 1530 nM
[41]
  GI50: 763 nM
  TGI: 2080 nM
[42]
  GI50: 20800 nM
  TGI: 35200 nM
[43]
  GI50: 14800 nM
  TGI: 28800 nM
[44]
  GI50: 10100 nM
  TGI: 21800 nM
[45]
  GI50: 1050 nM
  TGI: 7630 nM
[46]
  GI50: 1370 nM
  TGI: 3230 nM
[47]
  GI50: 781 nM
  TGI: 2470 nM
[48]
  GI50: 1740 nM
  TGI: 19600 nM
[49]
  GI50: 70.8 nM
  TGI: 1230 nM
[50]
  GI50: 573 nM
  TGI: 2190 nM
[51]
  GI50: 7130 nM
  TGI: 25700 nM
[52]
  GI50: 15600 nM
  TGI: 29200 nM
[53]
  GI50: 473 nM
  TGI: 1890 nM
[54]
  GI50: 13600 nM
  TGI: 26700 nM
[55]
  GI50: 2860 nM
  TGI: 21100 nM
[56]
  GI50: 1410 nM
  TGI: 2790 nM
